“Also recorded” adds a separate entry of the source. Like-named read-outs stand apart in the source and are kept apart here.
What was measured:
[1] = system: human lung carcinoma Lu1 cell line; assay: Cell culture panel bioassay, Lu1 cell line; type: cell-based
Excerpt: (§1) Human oral epidermoid carcinoma KB cell line, human promyelocytic leukemia HL-60 cell line, human prostate carcinoma LNCaP cell line, human breast carcinoma MCF-7 cell line, human colon carcinoma Col2 cell line, and human lung carcinoma Lu1 cell line are activated from the frozen cells that are stored in Department of Medicinal Chemistry and Pharmacognosy, University of Illinois at Chicago, Chicago, Ill. Col2 cells are maintained in MEME medium. KB cells are maintained in DMEM medium. LNCaP cells are maintained in RPMI1640 medium with hormone-free 10% […] FBS (fetal bovine serum) supplemented with 0.1 nM testosterone, Lu1 cells are cultured in MEME medium. MCF-7 cells are maintained in MEME medium containing 10 mg/L of insulin. In each case, PSF (100 units/mL penicillin G, 100 μg/mL streptomycin sulfate, 250 ng/mL amphotericin B) is added. All media are supplemented with 10% heat-inactivated FBS.
(§2) Extracts, fractions, and compounds are tested in a human oral epidermoid carcinoma (KB) cell line using established protocols. In addition, all pure compounds are evaluated against the other human cancer cell lines comprising our cytotoxicity screening panel. Cytotoxicity assays involving colon (Col-2), prostate (LNCaP), and lung (Lu1) carcinoma cell lines are performed using sulforhodamine B according to established protocols.

[2] = system: human breast carcinoma MCF-7 cell line; assay: Cell culture panel bioassay, MCF-7 cell line; type: cell-based
Excerpt: as §1, §2

[3] = system: human prostate carcinoma LNCaP cell line; assay: Cell culture panel bioassay, LNCaP cell line; type: cell-based; details: for IC50: read-out: IC50 LNCaP
Excerpt: as §1, §2

[4] = system: human oral epidermoid carcinoma KB cell line; assay: Cell culture panel bioassay, KB cell line; type: cell-based; details: read-out: IC50 KB
Excerpt: as §1, §2

[5] = system: human colon carcinoma Col2 cell line; assay: Cell culture panel bioassay, Col2 cell line; type: cell-based
Excerpt: as §1, §2

[6] = system: P388 lymphocytic leukemia; details: Powell et al. (1982); cited from earlier work
[7] = system: KB cells; details: Powell et al. (1982); cited from earlier work
[8] = system: Col2 cells; assay: In vivo hollow fiber test, Col2 cells; set-up: species or system mice
Experimental: (§3) Hollow fiber tests are well known in the art for providing preliminary indications of therapeutic efficacy (Mi et al. (2002), J. Nat. Prod. 65: 842-850). In hollow fiber tests, human tumor cell lines currently employed in cell cultures are grown inside semipermeable hollow fibers to form heterogeneous solid tumor models. The hollow fibers containing the human tumor cells are implanted in the intraperitoneal or subcutaneous compartments of host mice, and the mice treated with the test compound of interest (Hollingshead et al, (1995), Life Sciences 57(2):131-141).
(§4) Loeseneriellin B isolated from Loeseneriella pauciflora (Celastraceae) is tested for in vivo hollow fiber study.

[9] = system: MCF7 cells; assay: In vivo hollow fiber test, MCF7 cells; set-up: species or system mice
Experimental: as §3, §4

[10] = system: Lu1 cells; assay: In vivo hollow fiber test, Lu1 cells; set-up: species or system mice
Experimental: as §3, §4

[11] = system: HCT116 cancer cells; assay: HCT116 xenograft mouse model, tumor growth; type: in vivo, nude mice; details: for average tumor size (L×W×W) suppressed in comparison with the control group: after 21 days
Experimental: (§5) HCT116 cancer cells (2×10^7 cells in 100 μL suspension) are subcutaneously implanted in the rear flank of each mouse. After 10 days, solid tumors appear at the implanted sites. […] Daily injections at i.v. sites were scheduled for 21 days.
(§6) FIGS. 1 to 3 show the inhibition of HCT116-tumor xenograft growth by loeseneriellin B. The treatment started on the 10th day when the tumor size reached approximately 100 mm^3 (L×W×W).

[12] = system: KB, Col-2, LNCaP, Lu-1, and MCF-7 cell lines; assay: In vitro anti-tumor activity against the tumor cell line panel; type: cell-based, human; details: Lu-1, MCF-7
Experimental: The in vitro anti-tumor activity of isolated compounds (1-6) is evaluated against KB, Col-2, LNCaP, Lu-1, and MCF-7 cell lines. […] However, because of the much different stereochemistry, the bimacrocyclic maytansinoid may have a different anticancer therapeutic window from that of mono-macrocyclic maytansine derivatives.
as §1, with “In each case, PSF (100 units/mL penicillin G, 100 μg/mL streptomycin sulfate, 250 ng/mL amphotericin B) is added. All media are supplemented with 10% heat-inactivated FBS.” left out
Extracts, fractions, and compounds are tested in a human oral epidermoid carcinoma (KB) cell line using established protocols. In addition, all pure compounds are evaluated against the other human cancer cell lines comprising our cytotoxicity screening panel. […]

[13] = HCT116 xenograft mouse model, body weight; type: in vivo, nude mice; details: 20 and 40 μg/kg i.v. daily for 3 weeks (FIG. 3)
Experimental: as §5, §6

[14] = cited from earlier work
[15] = concentration required to inhibit cell growth by 50%, triplicate experiments, read-out: IC50 Lu1
[16] = concentration required to inhibit cell growth by 50%, triplicate experiments, read-out: IC50 MCF-7
[17] = concentration required to inhibit cell growth by 50%, triplicate experiments
[18] = concentration required to inhibit cell growth by 50%, triplicate experiments, read-out: IC50 Col2

COc1cc2cc(c1Cl)N(C)C(=O)CC(OC(=O)C(C)N(C)C(=O)CC(C)C)C1(C)OC1C(C)C1CC(O)(NC(=O)O1)C(OC)/C=C/C=C(\C)C2 (centres unmarked) [Compound 6, Maytanvaline]
IC50 [1, 15]: 0.69 nM
IC50 [2, 16]: 0.27 nM
IC50 [3, 17]: 0.16 nM
IC50 [4, 17]: 0.11 nM
IC50 [5, 18]: 0.15 nM

COc1cc2cc(c1Cl)N1CC(O)C(C)(O)C(=O)N[C@@H](C)C(=O)O[C@@H](CC1=O)[C@]1(C)OC1[C@H](C)[C@@H]1C[C@@](O)(NC(=O)O1)[C@H](OC)/C=C/C=C(\C)C2OC (some centres unmarked) [trenudine]
antitumor activity against P388 lymphocytic leukemia [6]: retain antitumor activity
antitumor activity against KB cells [7]: retain antitumor activity

CC(=O)O[C@H]1C(=O)[C@@]2(C)[C@H]([C@H](OC(=O)c3ccccc3)[C@]3(O)C[C@H](OC(=O)[C@H](O)[C@@H](NC(=O)c4ccccc4)c4ccccc4)C(C)=C1C3(C)C)[C@]1(OC(C)=O)CO[C@@H]1C[C@@H]2O [Paclitaxel]
Inhibition (%) ([8]; Col2-SC, dose 2.0 mg/kg): 6.9%
inhibition at 0.02 µg/mL ([1]; Homo sapiens, Lu1, at 20 ng/mL, positive control, read-out: inhibition against Lu-1): 56%
inhibition at 0.02 µg/mL ([2]; Homo sapiens, MCF7, at 20 ng/mL, positive control, read-out: inhibition against MCF-7): 71%
inhibition at 0.02 µg/mL ([3]; Homo sapiens, LNCaP, at 20 ng/mL, positive control, read-out: inhibition against LNCaP): 89%
Inhibition (%) ([9]; MCF7-IP, dose 2.0 mg/kg): 71.3%
Inhibition (%) ([9]; MCF7-SC, dose 2.0 mg/kg): 0%
Inhibition (%) ([10]; Lu1-IP, dose 2.0 mg/kg): 39.9%
Inhibition (%) ([10]; Lu1-SC, dose 2.0 mg/kg): 0%
excised tumor weights, % inhibition versus control ([11]; 5 mg/kg i.v. daily for 3 weeks (FIG. 2)): 37.6%
inhibition at 0.02 µg/mL ([5]; Homo sapiens, Col2, at 20 ng/mL, positive control, read-out: inhibition against Col2): 76%

Loeseneriellin A [Compound 2]
IC50 [1, 15]: 0.38 nM
IC50 [2, 16]: 0.19 nM
IC50 [3, 17]: 0.18 nM
IC50 [4, 17]: 0.1 nM
IC50 [5, 18]: 0.18 nM

COc1cc2cc(c1Cl)N1CC(C)C(C)(O)C(=O)N[C@@H](C)C(=O)O[C@@H](CC1=O)[C@]1(C)OC1[C@H](C)[C@@H]1C[C@@](O)(NC(=O)O1)[C@H](OC)/C=C/C=C(\C)C2 (some centres unmarked) [Compound 1, Loeseneriellin B]
Inhibition (%) ([8]; Col2-IP, dose 0.05 mg/kg, listed as Loeseneriellin B): 65.5%
Inhibition (%) ([8]; Col2-IP, dose 0.05 mg/kg, listed as loeseneriellin B): more than 65%
Inhibition (%) ([8]; Col2-IP, dose 0.1 mg/kg): 70.5%
Inhibition (%) ([8]; Col2-SC, dose 0.05 mg/kg): 0%
Inhibition (%) ([8]; Col2-SC, dose 0.1 mg/kg): 1.4%
IC50 ([1]; Homo sapiens, Lu1, read-out: IC50 Lu1): 0.71 nM
bioactivity compared with maytansine (3) [12]: comparable bioactivity to that of maytansine
IC50 ([2]; Homo sapiens, MCF7, read-out: IC50 MCF-7): 0.68 nM
IC50 ([3]; Homo sapiens, LNCaP): 0.25 nM
Inhibition (%) ([9]; MCF7-IP, dose 0.05 mg/kg, listed as Loeseneriellin B): 57.2%
Inhibition (%) ([9]; MCF7-IP, dose 0.05 mg/kg, listed as loeseneriellin B): more than 65%
Inhibition (%) ([9]; MCF7-IP, dose 0.1 mg/kg): 75.5%
Inhibition (%) ([9]; MCF7-IP, dose 0.2 mg/kg): 84.6%
Inhibition (%) ([9]; MCF7-SC, dose 0.05 mg/kg): 0%
Inhibition (%) ([9]; MCF7-SC, dose 0.1 mg/kg): 0%
Inhibition (%) ([9]; MCF7-SC, dose 0.2 mg/kg): 40.1%
Inhibition (%) ([10]; Lu1-IP, dose 0.05 mg/kg): 34.9%
Inhibition (%) ([10]; Lu1-IP, dose 0.1 mg/kg): 20.9%
Inhibition (%) ([10]; Lu1-SC, dose 0.05 mg/kg): 0%
Inhibition (%) ([10]; Lu1-SC, dose 0.1 mg/kg): 0%
excised tumor weights, % inhibition versus control ([11]; high dose 40 μg/kg i.v. daily for 3 weeks (FIG. 2)): 41.7%
average tumor size (L×W×W) suppressed in comparison with the control group ([11]; high dose 40 μg/kg i.v. daily): 41.7%
excised tumor weights, % inhibition versus control ([11]; low dose 20 μg/kg i.v. daily for 3 weeks (FIG. 2)): 38.3%
average tumor size (L×W×W) suppressed in comparison with the control group ([11]; low dose 20 μg/kg i.v. daily): 38.3%
IC50 ([4]; Homo sapiens, KB): 0.15 nM
body weights of mice [13]: No apparent weight loss; also recorded: insignificant change in body weights
IC50 ([5]; Homo sapiens, Col2, read-out: IC50 Col2): 0.2 nM

COc1cc2cc(c1Cl)N(C)C(=O)C[C@H](OC(=O)[C@H](C)N(C)C(C)=O)[C@]1(C)O[C@H]1[C@H](C)[C@@H]1C[C@@](O)(NC(=O)O1)[C@H](OC)/C=C/C=C(\C)C2 [Compound 3, Maytansine]
systemic toxicity in human clinical trials [14]: unacceptable systemic toxicity
IC50 [1, 15]: 0.77 nM
IC50 [2, 16]: 0.69 nM
IC50 [3, 17]: 0.32 nM
IC50 [4, 17]: 0.17 nM
IC50 [5, 18]: 0.19 nM

COc1cc2cc(c1Cl)N(C)C(=O)C[C@H](OC(=O)C(C)N(C)C(=O)C(C)C)[C@]1(C)O[C@H]1[C@H](C)[C@@H]1C[C@@](O)(NC(=O)O1)[C@H](OC)/C=C/C=C(\C)C2 (some centres unmarked) [Compound 5, Maytanbutine]
IC50 [1, 15]: 0.13 nM
IC50 [2, 16]: 0.13 nM
IC50 [3, 17]: 0.054 nM
IC50 [4, 17]: 0.05 nM
IC50 [5, 18]: 0.061 nM

COc1cc2cc(c1Cl)N1CCC(C)(O)C(=O)N[C@@H](C)C(=O)O[C@@H](CC1=O)[C@]1(C)OC1[C@H](C)[C@@H]1C[C@@](O)(NC(=O)O1)[C@H](OC)/C=C/C=C(\C)C2OC (some centres unmarked) [treflorine]
antitumor activity against P388 lymphocytic leukemia [6]: retain antitumor activity
antitumor activity against KB cells [7]: retain antitumor activity

CCC(=O)N(C)[C@@H](C)C(=O)O[C@H]1CC(=O)N(C)c2cc(cc(OC)c2Cl)C/C(C)=C/C=C[C@@H](OC)[C@@]2(O)C[C@H](OC(=O)N2)[C@@H](C)[C@@H]2O[C@@]12C [Compound 4, Maytanprine]
IC50 [1, 15]: 0.35 nM
IC50 [2, 16]: 0.17 nM
IC50 [3, 17]: 0.16 nM
IC50 [4, 17]: 0.061 nM
IC50 [5, 18]: 0.16 nM

CC[C@]1(O)C[C@@H]2CN(CCc3c([nH]c4ccccc34)[C@@](C(=O)OC)(c3cc4c(cc3OC)N(C)[C@H]3[C@@](O)(C(=O)OC)[C@H](OC(C)=O)[C@]5(CC)C=CCN6CC[C@]43[C@@H]65)C2)C1 [vinblastine, Vinblastine]
inhibition at 0.04 µg/mL ([1]; Homo sapiens, Lu1, at 40 ng/mL, positive control, read-out: inhibition against Lu-1): 54%
inhibition at 0.04 µg/mL ([2]; Homo sapiens, MCF7, at 40 ng/mL, positive control, read-out: inhibition against MCF-7): 70%
inhibition at 0.04 µg/mL ([3]; Homo sapiens, LNCaP, at 40 ng/mL, positive control, read-out: inhibition against LNCaP): 89%
inhibition at 0.04 µg/mL ([5]; Homo sapiens, Col2, at 40 ng/mL, positive control, read-out: inhibition against Col2): 87%

Reference: patent US9562059B2, “Anticancer maytansinoids with two fused macrocyclic rings” (priority 2013, dated 2017)
